US6358522B1, “Pharmaceutical compositions containing lipase inhibitor” (Hoffmann-La Roche Inc., priority 1998, dated 2002)

Experiment: Anal leakage of oil in rats on high fat diet with diet-admixed orlistat
Assay type: in vivo
Source text: Rats maintained on high fat diet were used as models. […] However, the amount of oil leakage could not easily be determined. Due to coprophagia and extensive grooming activity the rats distributed the oil to a large extent over their fur. Moreover, this stressful condition of unsuccessful grooming provoked considerable excitation of the animals. The area of greasy fur increased in proportion to the amount of unabsorbed fat and was reduced by dietary admixture of selected examples of the above defined food additives. However, for reasons of animal care for comparative evaluation of the additives a surrogate parameter was used to assess effects on oil leakage. Following a meal containing orlistat, unabsorbed fat is temporarily stored in the caecum of the rat prior to excretion. The fat is partly present as floating liquid oil, partly associated with unabsorbable solids.

Anal leakage of oil: provoked anal leakage of liquid oil
Compound: CCCCCCCCCCC[C@@H](C[C@@H]1OC(=O)[C@H]1CCCCCC)OC(=O)[C@H](CC(C)C)NC=O [orlistat, N-formyl-L-leucine ester with (3S,4S)-3-hexyl-4-[(2S)-2-hydroxy-tridecyl]-2-oxetanone]
